Data from patent publication US12624018B1, “Inhibitors of RIPK2 and medical uses thereof” (Odyssey Therapeutics, Inc., priority 2022, dated 2026).

Each molecule was assayed against T1, RIPK2 enzyme (Homo sapiens, UniProt O43353) (assay: RIPK2 inhibition (ADP-Glo Kinase Assay)). Conditions: RIPK2 5 nM, ATP 150 μM, MBP substrate, read-out: RIPK2 IC50.
T1 construct: purchased Carna 09-128
Assay type: biochemical
Procedure, shortened: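 Human RIPK2 (5 nM) preincubated with compound 30 min at room temperature in 50 mM HEPES pH 7.5, 10 mM MgCl2, 2 mM DTT, 1 mM EGTA, 0.01% Brij-35, 0.05% BSA; native swine MBP as substrate. ADP formed quantified by ADP-Glo luminescence; percent inhibition relative to DMSO and no-enzyme controls.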

T1 sequence (O43353 1-299 limits assumed): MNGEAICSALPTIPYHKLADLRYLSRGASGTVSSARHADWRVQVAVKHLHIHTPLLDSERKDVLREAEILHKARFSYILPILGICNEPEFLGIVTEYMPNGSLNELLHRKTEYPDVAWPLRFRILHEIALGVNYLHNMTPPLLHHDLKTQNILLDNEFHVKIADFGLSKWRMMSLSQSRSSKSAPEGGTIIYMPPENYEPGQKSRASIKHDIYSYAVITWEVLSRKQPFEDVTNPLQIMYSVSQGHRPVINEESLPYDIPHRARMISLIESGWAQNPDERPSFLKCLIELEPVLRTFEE

Row | Structure (SMILES) | IC50
1 | Cc1cc(CC(=O)Nc2cnn(C(C)(C)C)c2)ccc1Oc1ccnc2ccc(S(=O)(=O)CC3CNC3)cc12 [Compound 332, 2-(4-((6-((azetidin-3-ylmethyl)sulfonyl)quinolin-4-yl)oxy)-3-methylphenyl)-N-(1-(tert-butyl)-1H-pyrazol-4-yl)acetamide] | < 2.5 nM
2 | Cc1cc(CC(=O)Nc2cnn(C(C)(C)C)c2)ccc1Oc1ccnc2ccc(S(=O)(=O)C3CN(C)C3)cc12 [Compound 149, N-(1-(tert-butyl)-1H-pyrazol-4-yl)-2-(3-methyl-4-((6-((1-methylazetidin-3-yl)sulfonyl)quinolin-4-yl)oxy)phenyl)acetamide] | < 2.5 nM
3 | COc1cc2ncnc(Oc3ccc(CC(=O)Nc4cnn(C(C)(C)C)c4)c(F)c3)c2cc1S(=O)(=O)C(C)(C)C [Compound 2, N-(1-(tert-butyl)-1H-pyrazol-4-yl)-2-(4-((6-(tert-butylsulfonyl)-7-methoxyquinazolin-4-yl)oxy)-2-fluorophenyl)acetamide] | < 2.5 nM
4 | Cc1cc(CC(=O)Nc2cnn(C(C)(C)C)c2)ccc1Oc1ccnc2ccc(S(=O)(=O)N3CC(C#N)C3)cc12 [Compound 260, N-(1-(tert-butyl)-1H-pyrazol-4-yl)-2-(4-((6-((3-cyanoazetidin-1-yl)sulfonyl)quinolin-4-yl)oxy)-3-methylphenyl)acetamide] | 2.5 nM
5 | Cc1c(Oc2ccnc3ccc(C(=O)N4CC5(COC5)C4)cc23)ccc(CC(=O)Nc2cnn(C(C)(C)C)c2)c1F [Compound 347, 2-(4-((6-(2-oxa-6-azaspiro[3.3]heptane-6-carbonyl)quinolin-4-yl)oxy)-2-fluoro-3-methyl-phenyl)-N-(1-(tert-butyl)-1H-pyrazol-4-yl)acetamide] | < 2.5 nM
6 | CN1CCC(Oc2ccc3ncnc(Oc4ccc(CC(=O)Nc5cnn(C(C)(C)C)c5)cc4Cl)c3c2)CC1 [Compound 159, N-(1-(tert-butyl)-1H-pyrazol-4-yl)-2-(3-chloro-4-((6-((1-methyl-piperidin-4-yl)oxy)quinazolin-4-yl)oxy)phenyl) acetamide] | < 2.5 nM
7 | Cc1cc(CC(=O)Nc2cc(C(C)C)n(C)n2)ccc1Oc1ccnc2ccc(S(C)(=O)=O)cc12 [Compound 233, N-(5-isopropyl-1-methyl-1H-pyrazol-3-yl)-2-(3-methyl-4-((6-(methylsulfonyl)quinolin-4-yl)oxy)phenyl)acetamide] | < 2.5 nM
8 | Cc1c(Oc2ccnc3ccc(S(=O)(=O)N(C)C)cc23)ccc(CC(=O)Nc2cnn(C(C)(C)C)c2)c1F [Compound 269, N-(1-(tert-butyl)-1H-pyrazol-4-yl)-2-(4-((6-(N,N-dimethylsulfamoyl)quinolin-4-yl)oxy)-2-fluoro-3-methylphenyl)acetamide] | < 2.5 nM
9 | Cc1cc(CC(=O)Nc2cnn(C(C)(C)C)c2)c(F)cc1Oc1ccnc2ccc(C(=O)NC3COC3)cc12 [Compound 392, 4-(4-(2-((1-(tert-butyl)-1H-pyrazol-4-yl)amino)-2-oxoethyl)-5-fluoro-2-methyl-phenoxy)-N-(oxetan-3-yl)quinoline-6-carboxamide] | < 2.5 nM
10 | Cc1cc(CC(=O)Nc2cnn(C(C)(C)C)c2)ccc1Oc1ccnc2ccc(N3CCCC3=O)cc12 [Compound 290, N-(1-(tert-butyl)-1H-pyrazol-4-yl)-2-(3-methyl-4-((6-(2-oxopyrrolidin-1-yl)quinolin-4-yl)oxy)phenyl) acetamide] | < 2.5 nM
11 | Cc1cc(CC(=O)Nc2cnn(C(C)(C)C)c2)ccc1Oc1ccnc2ccc(N3CCCS3(=O)=O)cc12 [Compound 266, N-(1-(tert-butyl)-1H-pyrazol-4-yl)-2-(4-((6-(1,1-dioxidoisothiazolidin-2-yl)quinolin-4-yl)oxy)-3-methylphenyl) acetamide] | < 2.5 nM
12 | Cc1cc(CC(=O)Nc2cnn(C(C)(C)C)c2)ccc1Oc1ccnc2ccc(OC3CCN(C4CC4)CC3)cc12 [Compound 95, N-(1-(tert-butyl)-1H-pyrazol-4-yl)-2-(4-((6-((1-cyclopropyl-piperidin-4-yl)oxy)quinolin-4-yl)oxy)-3-methylphenyl) acetamide] | < 2.5 nM
13 | CC(C)(C)n1cc(NC(=O)Cc2ccc(Oc3ccnc4ccc(S5(=O)=NCCCC5)cc34)cc2F)cn1 (centres unmarked) [Compound 67, N-(1-(tert-butyl)-1H-pyrazol-4-yl)-2-(2-fluoro-4-((6-(1-oxido-3,4,5,6-tetrahydro-1λ^6,2-thiazin-1-yl)quinolin-4-yl)oxy)phenyl)acetamide] | < 2.5 nM
14 | COc1cc2nccc(Oc3ccc(CC(=O)Nc4cnn(C(C)(C)C)c4)c(F)c3C)c2cc1P(C)(C)=O [Compound 382, N-(1-(tert-butyl)-1H-pyrazol-4-yl)-2-(4-((6-(dimethylphosphoryl)-7-methoxyquinolin-4-yl)oxy)-2-fluoro-3-methylphenyl) acetamide] | < 2.5 nM
15 | Cc1cc(CC(=O)Nc2cc(C(C)(C)C)n(C)n2)ccc1Oc1ccnc2ccc(S(C)(=O)=O)cc12 [Compound 230, N-(5-(tert-butyl)-1-methyl-1H-pyrazol-3-yl)-2-(3-methyl-4-((6-(methylsulfonyl)quinolin-4-yl)oxy)phenyl)acetamide] | < 2.5 nM
16 | Cc1c(Oc2ccnc3ccc(C(=O)NC4COC4)cc23)ccc(CC(=O)Nc2cnn(C(C)(C)C)c2)c1F [Compound 400, 4-(4-(2-((1-(tert-butyl)-1H-pyrazol-4-yl)amino)-2-oxoethyl)-3-fluoro-2-methyl-phenoxy)-N-(oxetan-3-yl)quinoline-6-carboxamide] | < 2.5 nM
17 | Cc1c(Oc2ccnc3ccc(P(C)(C)=O)cc23)ccc(CC(=O)Nc2cc(C(C)(C)C)n[nH]2)c1F [Compound 383, N-(5-(tert-butyl)-1H-pyrazol-3-yl)-2-(4-((6-(dimethylphosphoryl)quinolin-4-yl)oxy)-2-fluoro-3-methylphenyl) acetamide] | < 2.5 nM
18 | Cc1cc(CC(=O)Nc2cnn(C(C)(C)C)c2)ccc1Oc1ccnc2ccc(S(=O)(=O)CCO)cc12 [Compound 203, N-(1-(tert-butyl)-1H-pyrazol-4-yl)-2-(4-((6-((2-hydroxyethyl)sulfonyl)quinolin-4-yl)oxy)-3-methylphenyl)acetamide] | < 2.5 nM

Second part, the molecule after the results:

Row | IC50 | Structure (SMILES)
19 | < 2.5 nM | Cc1c(Oc2ccnc3ccc(S(=O)(=O)N4C[C@@H](C)O[C@@H](C)C4)cc23)ccc(CC(=O)Nc2cnn(C(C)(C)C)c2)c1F [Compound 386, N-(1-(tert-butyl)-1H-pyrazol-4-yl)-2-(4-((6-(((2R,6S)-2,6-dimethylmorpholino)sulfonyl)quinolin-4-yl)oxy)-2-fluoro-3-methylphenyl)acetamide]
20 | < 2.5 nM | Cc1cc(CC(=O)Nc2cnn(C(C)(C)C)c2)ccc1Oc1ccnc2ccc(OCC(C)(C)O)cc12 [Compound 226, N-(1-(tert-butyl)-1H-pyrazol-4-yl)-2-(4-((6-(2-hydroxy-2-methyl-propoxy)quinolin-4-yl)oxy)-3-methylphenyl) acetamide]
21 | < 2.5 nM | Cc1c(Oc2ccnc3ccc(C(=O)N4CCNCC4)cc23)ccc(CC(=O)Nc2cnn(C(C)(C)C)c2)c1F [Compound 356, N-(1-(tert-butyl)-1H-pyrazol-4-yl)-2-(2-fluoro-3-methyl-4-((6-(piperazine-1-carbonyl)quinolin-4-yl)oxy)phenyl) acetamide]
22 | < 2.5 nM | COCCNC(=O)c1ccc2nccc(Oc3ccc(CC(=O)Nc4cnn(C(C)(C)C)c4)c(F)c3C)c2c1 [Compound 342, 4-(4-(2-((1-(tert-butyl)-1H-pyrazol-4-yl)amino)-2-oxoethyl)-3-fluoro-2-methyl-phenoxy)-N-(2-methoxyethyl) quinoline-6-carboxamide]
23 | < 2.5 nM | [2H]C([2H])([2H])S(=O)(=O)c1ccc2nccc(Oc3ccc(CC(=O)Nc4cnn(C(C)(C)C)c4)cc3C)c2c1 [Compound 198, N-(1-(tert-butyl)-1H-pyrazol-4-yl)-2-(3-methyl-4-((6-((methyl-d3)sulfonyl)quinolin-4-yl)oxy)phenyl)acetamide]
24 | < 2.5 nM | Cc1cc(CC(=O)Nc2cnn(C(C)(C)C)c2)c(F)cc1Oc1ccnc2ccc(C(=O)NCCO)cc12 [Compound 364, 4-(4-(2-((1-(tert-butyl)-1H-pyrazol-4-yl)amino)-2-oxoethyl)-5-fluoro-2-methyl-phenoxy)-N-(2-hydroxy-ethyl) quinoline-6-carboxamide]
25 | < 2.5 nM | Cc1cc(CC(=O)Nc2cnn(C(C)(C)C)c2)ccc1Oc1ccnc2ccc(OC3CCNC(C)C3)cc12 (racemic) [Compound 220, N-(1-(tert-butyl)-1H-pyrazol-4-yl)-2-(3-methyl-4-((6-((-2-methyl-piperidin-4-yl)oxy)quinolin-4-yl)oxy)phenyl) acetamide]
26 | 11.6 nM | COc1ccc2ncnc(Oc3cnc(CC(=O)Nc4cc(C(C)(C)C)[nH]n4)c(F)c3)c2c1 [Compound 12, N-(5-(tert-butyl)-1H-pyrazol-3-yl)-2-(3-fluoro-5-((6-methoxyquinazolin-4-yl)oxy)pyridin-2-yl)acetamide]
27 | < 2.5 nM | [2H]C([2H])([2H])c1cc(CC(=O)Nc2cnn(C(C)(C)C)c2)ccc1Oc1ccnc2ccc(OC3CCN(C)CC3)cc12 [Compound 105, N-(1-(tert-butyl)-1H-pyrazol-4-yl)-2-(3-(methyl-d3)-4-((6-((1-methyl-piperidin-4-yl)oxy)quinolin-4-yl)oxy)phenyl) acetamide]
28 | < 2.5 nM | Cc1cc(CC(=O)Nc2cc(C3CC3)n(C)n2)ccc1Oc1ccnc2ccc(S(C)(=O)=O)cc12 [Compound 235, N-(5-cyclopropyl-1-methyl-1H-pyrazol-3-yl)-2-(3-methyl-4-((6-(methylsulfonyl)quinolin-4-yl)oxy)phenyl)acetamide]
29 | < 2.5 nM | Cc1c(Oc2ccnc3ccc(S(=O)(=O)N4CCC4)cc23)ccc(CC(=O)Nc2cnn(C(C)(C)C)c2)c1F [Compound 271, 2-(4-((6-(azetidin-1-ylsulfonyl)quinolin-4-yl)oxy)-2-fluoro-3-methylphenyl)-N-(1-(tert-butyl)-1H-pyrazol-4-yl)acetamide]
